Test results published in ChEMBL document CHEMBL3352691, “Meroterpenoids from the alga-derived fungi Penicillium thomii Maire and Penicillium lividum Westling” (J Nat Prod, 2014).
Where a name gives a salt, the structure may show the parent alone. The source made the active and inactive calls. The calls are words filed in the database; no cut-off is given here.

Key:
[1] = Inhibition of endo-1,3-beta-D-glucanase in Pseudocardium sachalinensis preincubated for 15 mins by Nelson method
[2] = Inhibition of AP-1 basal transcriptional activity in mouse JB6 Cl41 cells at 6.25 uM after 12 hrs by luciferase reporter gene assay; type: functional; conditions: JB6 Cl41, 12 h
[3] = Cytotoxicity against mouse JB6 Cl41 cells assessed as reduction in cell viability up to 100 uM after 2 hrs by MTS assay; type: cell-based; conditions: jb6 cl41, 2 h
MDA-MB-231 = test: Cytotoxicity against human MDA-MB-231 cells after 2 hrs by MTS assay; type: functional, cell-based; conditions: MDA-MB-231, 2 h
JB6 Cl41 = test: Inhibition of AP-1 basal transcriptional activity in mouse JB6 Cl41 cells at non cytotoxic concentration after 12 hrs by luciferase reporter gene assay; type: functional, cell-based
[4] = Cytotoxicity against mouse JB6 Cl41 cells after 2 hrs by MTS assay; type: cell-based; conditions: JB6 Cl41, 2 h

| Structure (SMILES) | IC50 [1] | inhibition at 6.25 µM [2] | Activity [3] | IC50 (MDA-MB-231) | inhibition (JB6 Cl41) | IC50 [4] |
| --- | --- | --- | --- | --- | --- | --- |
| CCCCOC(=O)CC[C@@]1(C)[C@H]2Cc3c(c(C)c4c(c3OC)C(=O)OC4)O[C@@]2(C)CC[C@H]1C(C)(C)O | 0.1 µM | 34% | Non-toxic |  |  |  |
| COc1c2c(c(C)c3c1C(=O)OC3)O[C@@]1(C)CC[C@@H](C(C)(C)O)[C@@](C)(CCC(=O)O)[C@H]1C2 | 0.01 µM |  |  |  |  |  |
| COc1c2c(c(C)c3c1C(=O)OC3)O[C@@]1(C)CC[C@H]3C(C)(C)OC(=O)CC[C@]3(C)[C@H]1C2 | 0.01 µM | 36.3% | Non-toxic | < 10 µM | Active | < 10 µM |
| COc1c2c(c(C)c3c1C(=O)OC3)O[C@@]1(C)C[C@@H](O)[C@]34O[C@](O)(CC[C@]3(C)[C@H]1C2)OC4(C)C | 250 µM |  |  |  |  |  |
| CCCCOC(=O)CC[C@@]1(C)[C@H]2Cc3c(c(C)c4c(c3OC)C(=O)OC4)O[C@@]2(C)C[C@@H](O)[C@H]1C(C)(C)O | 0.2 µM | 36.1% | Non-toxic | < 10 µM | Active | < 10 µM |
| C=C(C)[C@@H]1CC[C@]2(C)Oc3c(C)c4c(c(OC)c3C[C@@H]2[C@]1(C)CCC(=O)O)C(=O)OC4 | 1000 µM |  |  | < 10 µM |  | < 10 µM |
| C=C(C)[C@@H]1[C@H](O)C[C@]2(C)Oc3c(C)c4c(c(OC)c3C[C@@H]2[C@]1(C)CCC(=O)O)C(=O)OC4 | 0.12 µM |  |  |  |  |  |
| COc1c2c(c(C)c3c1C(=O)OC3)O[C@@]1(C)C[C@@H](O)[C@H]3C(C)(C)OC(=O)CC[C@]3(C)[C@H]1C2 | 2 µM | 27.6% | Non-toxic | < 10 µM | Active | < 10 µM |
| COc1c2c(c(C)c3c1C(=O)OC3)O[C@@]1(C)C[C@@H](O)[C@@H](C(C)(C)O)[C@@](C)(CCC(=O)O)[C@H]1C2 | 1 µM |  |  | < 10 µM | Active | < 10 µM |
| CC(CC[C@@H](C)[C@H]1CC[C@H]2[C@@H]3C[C@H](OS(=O)(=O)O)[C@H]4C[C@H](OS(=O)(=O)O)[C@@H](OS(=O)(=O)O)C[C@]4(C)[C@H]3CC[C@]12C)C(C)(C)C (some centres not stated) [HALISTANOL SULFATE] | 130 µM |  |  |  |  |  |
